According to article PMC12928749 (ACS catalysis, 2025):

How the values were obtained:
[1] = target: T1, TyrH (heme-dependent tyrosine hydroxylase) (Streptomyces sclerotialus, UniProt Z9QGI7APK5); assay: steady-state kinetics; format: biochemical; details: co-substrate H2O2
T1 sequence (Z9QGI7APK5 1-314): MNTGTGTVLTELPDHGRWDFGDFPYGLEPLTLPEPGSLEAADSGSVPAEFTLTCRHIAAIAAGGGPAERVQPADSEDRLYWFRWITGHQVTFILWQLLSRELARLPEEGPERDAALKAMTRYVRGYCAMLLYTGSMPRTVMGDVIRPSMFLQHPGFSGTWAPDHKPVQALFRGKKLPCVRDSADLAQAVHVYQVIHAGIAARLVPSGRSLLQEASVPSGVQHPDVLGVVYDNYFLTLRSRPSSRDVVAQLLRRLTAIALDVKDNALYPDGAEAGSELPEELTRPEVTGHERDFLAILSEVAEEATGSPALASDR

[2] = target: T1, TyrH (heme-dependent tyrosine hydroxylase); assay: UV-vis titration; format: binding; details: 100 mM potassium phosphate, 50 mM NaCl, pH 7.4; ferric enzyme

SMILES | KM [1] | Kd [2] [µM]
O=C(O)CCc1ccc(O)cc1 [HPPA, 3-(4-hydroxyphenyl)propionic acid] | The KM values for both tyrosine and HPPA were comparable (Figure S8) | 
N[C@@H](Cc1ccc(O)cc1)C(=O)O [L-Tyr, L-tyrosine] | The KM values for both tyrosine and HPPA were comparable (Figure S8) | 
O=Nc1ccccc1 [NB, nitrosobenzene] |  | 296 ± 8
